Counter-ions that a name gives are not always drawn. Like-named read-outs stand apart in the source and are kept apart here.
Molecular target: T1, Zcchc11 enzyme (Homo sapiens, UniProt Q5TAX3)
T1 construct: made in house; host or cells: HEK293 cells (Zcchc11); E. coli Rosetta II (LIN28A)
T1 sequence (Q5TAX3 212-1420): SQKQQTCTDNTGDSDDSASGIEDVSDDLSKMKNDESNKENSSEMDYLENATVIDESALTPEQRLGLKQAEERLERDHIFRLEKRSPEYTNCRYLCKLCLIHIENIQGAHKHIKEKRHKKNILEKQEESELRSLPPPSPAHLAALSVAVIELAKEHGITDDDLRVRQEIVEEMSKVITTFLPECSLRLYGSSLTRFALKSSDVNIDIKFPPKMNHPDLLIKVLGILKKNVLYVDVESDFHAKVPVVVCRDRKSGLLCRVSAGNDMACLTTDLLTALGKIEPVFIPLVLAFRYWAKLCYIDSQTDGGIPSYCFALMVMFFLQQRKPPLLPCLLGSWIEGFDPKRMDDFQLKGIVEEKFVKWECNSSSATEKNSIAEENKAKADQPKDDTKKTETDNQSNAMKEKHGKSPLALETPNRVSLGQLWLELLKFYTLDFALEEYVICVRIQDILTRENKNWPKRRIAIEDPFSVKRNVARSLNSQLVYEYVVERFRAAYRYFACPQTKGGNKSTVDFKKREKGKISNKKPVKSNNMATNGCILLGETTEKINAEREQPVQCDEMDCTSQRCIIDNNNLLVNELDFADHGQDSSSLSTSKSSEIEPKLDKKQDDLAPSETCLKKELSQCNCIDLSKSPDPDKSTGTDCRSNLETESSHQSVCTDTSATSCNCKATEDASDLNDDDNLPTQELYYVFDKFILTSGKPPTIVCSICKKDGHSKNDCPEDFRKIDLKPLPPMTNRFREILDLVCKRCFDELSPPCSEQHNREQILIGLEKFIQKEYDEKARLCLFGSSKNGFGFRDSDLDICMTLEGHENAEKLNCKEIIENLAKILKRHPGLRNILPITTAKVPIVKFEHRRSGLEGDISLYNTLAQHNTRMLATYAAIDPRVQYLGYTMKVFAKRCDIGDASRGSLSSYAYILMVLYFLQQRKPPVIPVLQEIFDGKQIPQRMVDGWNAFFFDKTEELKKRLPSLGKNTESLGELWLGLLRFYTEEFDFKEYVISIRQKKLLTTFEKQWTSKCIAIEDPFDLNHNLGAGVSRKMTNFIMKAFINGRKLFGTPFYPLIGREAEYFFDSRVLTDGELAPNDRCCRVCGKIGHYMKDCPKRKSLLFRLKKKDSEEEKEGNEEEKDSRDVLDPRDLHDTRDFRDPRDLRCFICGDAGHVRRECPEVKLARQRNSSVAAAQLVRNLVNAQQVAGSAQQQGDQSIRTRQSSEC
Assay: TUTase assay (Zcchc11 assay, Lin28a-dependent polyuridylation of pre-let-7)
Assay type: biochemical
Settings: read-out: Potency Lin28a-dep Z11 IC50
How it was run: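 Potency is measured as inhibition of LIN28A-driven U-tail addition to 2 nM pre-let-7 by 0.2 nM HEK293-derived Zcchc11 fragment with 5 uM UTP at room temperature. Tail growth appears as fluorescein quenching by an annealing rhodamine-A20 probe.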

[1] = Lin28a-dependent Zcchc11 (Z11) TUTase assay
[2] = Lin28a-dependent Zcchc11 (Z11) TUTase activity
[3] = LIN28A 10 nM, Zcchc11 0.2 nM, 5′-fluorescein pre-let-7 miRNA 2 nM, UTP 5 uM, room temperature, 30 minutes pre-incubation

SMILES | IC50 [1] [nM] | IC50 [2] [nM] | also measured
O=C(O)c1cn(-c2ncco2)c2cc(N3CCC[C@@H]3COc3ncccc3Cl)c(Cl)cc2c1=O [Example 485, (R)-6-chloro-7-(2-(((3-chloropyridin-2-yl)oxy)methyl)pyrrolidin-1-yl)-1-(oxazol-2-yl)-4-oxo-1,4-dihydroquinoline-3-carboxylic acid] | ≤ 1000 | – | –
CN(C)CCn1cc(Cn2cc(C(=O)O)c(=O)c3cc(Cl)c(N4CCC[C@@H]4COc4ncccc4Cl)cc32)cn1 [Example 582, (R)-6-chloro-7-(2-(((3-chloropyridin-2-yl)oxy)methyl)pyrrolidin-1-yl)-1-((1-(2-(dimethylamino)ethyl)-1H-pyrazol-4-yl)methyl)-4-oxo-1,4-dihydroquinoline-3-carboxylic acid] | 1000 to 10000 | – | –
Cc1cccnc1OC[C@H]1CCCN1c1cc2c(cc1F)c(=O)c(C(=O)O)cn2-c1ccc(NS(C)(=O)=O)cc1 [Example 412, (R)-6-fluoro-7-(2-(((3-methylpyridin-2-yl)oxy)methyl)pyrrolidin-1-yl)-1-(4-(methyl-sulfonamido)phenyl)-4-oxo-1,4-dihydroquinoline-3-carboxylic acid] | ≤ 1000 | – | –
Cc1cccnc1OC[C@H]1CCCN1c1cc2c(cc1F)c(=O)c(C(=O)O)cn2-c1ccc(CO)cc1F [Compound 123, (R)-6-fluoro-1-(2-fluoro-4-(hydroxy-methyl)phenyl)-7-(2-(((3-methylpyridin-2-yl)oxy)methyl)pyrrolidin-1-yl)-4-oxo-1,4-dihydro-quinoline-3-carboxylic acid] | – | ≤ 1000 | –
O=C(O)c1cn(-c2cnccn2)c2nc(N3CCC[C@@H]3COc3ncccc3Cl)c(Cl)cc2c1=O [Example 19, (R)-6-chloro-7-(2-(((3-chloropyridin-2-yl)oxy)methyl)pyrrolidin-1-yl)-4-oxo-1-(pyrazin-2-yl)-1,4-dihydro-1,8-naphthyridine-3-carboxylic acid] | – | – | IC50 [3]: ≤ 1000 nM
O=C(O)c1cn(-c2ccc(Cl)cc2)c2cc(N3CCC[C@@H]3COc3ccccn3)c(F)cc2c1=O [Compound 145, (R)-1-(4-chlorophenyl)-6-fluoro-4-oxo-7-(2-((pyridin-2-yloxy)methyl)pyrrolidin-1-yl)-1,4-dihydro-quinoline-3-carboxylic acid] | – | ≤ 1000 | –
COCCN1CCC(n2cc(C(=O)O)c(=O)c3cc(Cl)c(N4CCC[C@@H]4COc4ncccc4Cl)cc32)CC1 [Example 463, (R)-6-chloro-7-(2-(((3-chloropyridin-2-yl)oxy)methyl)pyrrolidin-1-yl)-1-(1-(2-methoxy-ethyl)piperidin-4-yl)-4-oxo-1,4-dihydroquinoline-3-carboxylic acid] | 1000 to 10000 | – | –
O=C(O)c1cn(-c2ccc(O)c(Cl)c2)c2cc(N3CCC[C@@H]3COc3ncccc3Cl)c(Cl)cc2c1=O [Compound 131, (R)-6-chloro-1-(3-chloro-4-hydroxy-phenyl)-7-(2-(((3-chloropyridin-2-yl)oxy)methyl)pyrrolidin-1-yl)-4-oxo-1,4-dihydro-quinoline-3-carboxylic acid] | – | ≤ 1000 | –
NC(=O)Cn1cc(C(=O)O)c(=O)c2cc(F)c(N3CCC[C@@H]3COc3ccccn3)cc21 [Example 574, (R)-1-(2-amino-2-oxoethyl)-6-fluoro-4-oxo-7-(2-((pyridin-2-yloxy)methyl)pyrrolidin-1-yl)-1,4-dihydroquinoline-3-carboxylic acid] | 1000 to 10000 | – | –
COc1ccc(Cl)c(OC[C@H]2C[C@@H]3C[C@@H]3N2c2cc3c(cc2F)c(=O)c(C(=O)O)cn3-c2ccc(N3CC(N(C)C)C3)nc2)n1 [Example 74, 7-[(1S,3R,5S)-3-{[(3-chloro-6-methoxypyridin-2-yl)oxy]methyl}-2-azabicyclo[3.1.0]hexan-2-yl]-1-{6-[3-(dimethylamino)azetidin-1-yl]pyridin-3-yl}-6-fluoro-4-oxo-1,4-dihydroquinoline-3-carboxylic acid] | – | – | IC50 [3]: ≤ 1000 nM
O=C(O)c1cn(-c2cnn(C3CNC3)c2)c2nc(N3CCC[C@@H]3COc3ncccc3F)c(Cl)cc2c1=O (racemic) [Compound 192, rac-(R)-1-(1-(azetidin-3-yl)-1H-pyrazol-4-yl)-6-chloro-7-(2-(((3-fluoropyridin-2-yl)oxy)methyl)pyrrolidin-1-yl)-4-oxo-1,4-dihydro-1,8-naphthyridine-3-carboxylic acid hydrochloride] | – | ≤ 1000 | –
O=C(O)c1cn(-c2ccncn2)c2cc(N3CCC[C@@H]3COc3ncccc3Cl)c(Cl)cc2c1=O [Example 541, (R)-6-chloro-7-(2-(((3-chloropyridin-2-yl)oxy)methyl)pyrrolidin-1-yl)-4-oxo-1-(pyrimidin-4-yl)-1,4-dihydroquinoline-3-carboxylic acid] | ≤ 1000 | – | –
CN(C)C1CN(c2ccc(-n3cc(C(=O)O)c(=O)c4cc(C#N)c(N5C(=O)CC[C@@H]5COc5ncccc5Cl)cc43)cn2)C1 [Compound 220, 7-[(2R)-2-[[(3-chloropyridin-2-yl)oxy]methyl]-5-oxopyrrolidin-1-yl]-6-cyano-1-[6-[3-(dimethyl-amino)azetidin-1-yl]pyridin-3-yl]-4-oxoquinoline-3-carboxylic acid] | – | 10000 to 50000 | –
CC1CC1n1cc(C(=O)O)c(=O)c2cc(F)c(N3CCC[C@@H]3COc3ccccn3)cc21 (stereo partly drawn) [Example 446, 6-fluoro-1-(2-methylcyclo-propyl)-4-oxo-7-((R)-2-((pyridin-2-yloxy)methyl)pyrrolidin-1-yl)-1,4-dihydro-quinoline-3-carboxylic acid] | 1000 to 10000 | – | –
O=C(O)c1cn(C2CCn3ccnc3C2)c2cc(N3CCC[C@@H]3COc3ncccc3Cl)c(Br)cc2c1=O (stereo partly drawn) [Example 536, 6-bromo-7-((R)-2-(((3-chloropyridin-2-yl)oxy)methyl)pyrrolidin-1-yl)-4-oxo-1-(5,6,7,8-tetrahydroimidazo [1,2-a]pyridin-7-yl)-1,4-dihydroquinoline-3-carboxylic acid] | ≤ 1000 | – | –
O=C(O)c1cn(-c2ccc(N3CCC3)nc2)c2cc(N3CCC[C@@H]3COc3ncccc3Cl)c(Br)cc2c1=O [Example 491, (R)-1-(6-(azetidin-1-yl)pyridin-3-yl)-6-bromo-7-(2-(((3-chloropyridin-2-yl)oxy)methyl)pyrrolidin-1-yl)-4-oxo-1,4-dihydroquinoline-3-carboxylic acid] | ≤ 1000 | – | –
Nc1ccc(-n2cc(C(=O)O)c(=O)c3cc(Cl)c(N4CCC[C@@H]4COc4ncccc4Cl)cc32)cn1 [Example 40, (R)-1-(6-aminopyridin-3-yl)-6-chloro-7-(2-(((3-chloropyridin-2-yl)oxy)methyl)pyrrolidin-1-yl)-4-oxo-1,4-dihydroquinoline-3-carboxylic acid] | – | – | IC50 [3]: ≤ 1000 nM
Cc1cccnc1OC[C@H]1CCCN1c1cc2c(cc1Cl)c(=O)c(C(=O)O)cn2C1(C)CCC1 [Example 455, (R)-6-chloro-1-(1-methylcyclobutyl)-7-(2-(((3-methylpyridin-2-yl)oxy)methyl)pyrrolidin-1-yl)-4-oxo-1,4-dihydroquinoline-3-carboxylic acid] | 1000 to 10000 | – | –
COc1ccc(Cl)c(OC[C@H]2C[C@@H]3C[C@@H]3N2c2cc3c(cc2F)c(=O)c(C(=O)O)cn3-c2ccnc(N)c2)n1 (racemic) [Compound 230, Rac-1-(2-aminopyridin-4-yl)-7-((1R,3S,5R)-3-(((3-chloro-6-methoxy-pyridin-2-yl)oxy)methyl)-2-azabicyclo [3.1.0]hexan-2-yl)-6-fluoro-4-oxo-1,4-dihydro-quinoline-3-carboxylic acid] | – | ≤ 1000 | –
CN(C)C1CN(c2ccc(-n3cc(C(=O)O)c(=O)c4cc(F)c(N5C6CC6C[C@@H]5COc5nc6c(ccn6C)cc5Cl)cc43)cn2)C1 (stereo partly drawn) [Compound 334, 7-[(3R)-3-[({5-chloro-1-methylpyrrolo [2,3-b]pyridin-6-yl}oxy)methyl]-2-azabicyclo [3.1.0]hexan-2-yl]-1-{6-[3-(dimethyl-amino)azetidin-1-yl]pyridin-3-yl}-6-fluoro-4-oxoquinoline-3-carboxylic acid] | – | ≤ 1000 | –

From patent US12662491B2 (Redona Therapeutics, Inc., priority 2020, dated 2026)
